# Experimental data as given in US8435976B2, “4-substituted pyridin-3-yl-carboxamide compounds and methods of use” (F. Hoffmann-La Roche, priority 2009, dated 2013).
# Where two headings read alike, the source gives them in different places.
# Key:
# BaF3 parental cells = assay: BaF3 parental cell proliferation (Cell Titer Glo); format: cell-based; conditions: Mus musculus, Table 3
# Protocol: BaF3 parental line was obtained from the DSMZ repository. BaF3 lines transfected with PIM1 or PIM2 were generated. Mouse IL-3 was purchased from R&D Systems. G418 was purchased from Clontech. Media for BaF3 parental line contained RPMI, 10% FBS, 2 mM L-Glutamine, 2 ng/mL mIL-3. Media for BaF3 PIM1 & 2 lines contained RPMI, 10% FBS, 2 mM L-Glutamine, […]. Media for MM1.S line contained RPMI, 10% FBS, 2 mM L-Glutamine.
# BaF3 parental cells, BaF3 PIM1 cells, BaF3 PIM2 cells, and MM1.S cells were seeded at 2 k/well, 5 k/well, 5 k/well, and 10 k/well respectively, in a 384-well plate, at 45 μL/well. Test compound was added at 5 μL/well. BaF3 cells (parental and transfected) were incubated overnight, while MM1.S cells were incubated for 72 hours at 37° C., 5% CO2. Cell Titer Glo Reagent (Promega) was added at 50 μL/well, the plates were incubated for 30 minutes, and their luminescence read on an HT Analyst. IC50/EC50 values for the test compound were calculated.
# [1] = test system: syngeneic A20 lymphoma tumors; assay: Syngeneic A20 lymphoma tumor model; format: in vivo, Balb/c mice; conditions: Compound 3 25 and 50 mg/kg or Formula A 75 mg/kg po qd x21
# Protocol: The efficacy of the combinations of the invention may be measured in vivo by implanting allografts or xenografts of cancer cells in rodents and treating the tumor-bearing animals with the combinations. […] Subject mice were treated with drug(s) or control (Vehicle) and monitored over several weeks or more to measure the time to tumor doubling, log cell kill, and tumor inhibition.
# Dosing of all cohorts commenced on Day 0 when the mean tumor volume of all cohorts was between […]. […] At the conclusion of this study, femurs were collected and histological analysis of the bone marrow was conducted, and peripheral blood was collected for determination of blood cell counts.
# [2] = test system: OPM-2 multiple myeloma xenografts; assay: OPM-2 multiple myeloma xenograft; format: in vivo, SCID Beige mice; conditions: Compound 3 50 mg/kg po qd x21, day 23 vs vehicle
# Protocol: (§1) The efficacy of the combinations of the invention may be measured in vivo by implanting allografts or xenografts of cancer cells in rodents and treating the tumor-bearing animals with the combinations. Variable results are to be expected depending on the cell line, the presence or absence of certain mutations in the tumor cells, the sequence of administration of a formula I compound and chemotherapeutic agent, dosing regimen, and other factors. Subject mice were treated with drug(s) or control (Vehicle) and monitored over several weeks or more to measure the time to tumor doubling, log cell kill, and tumor inhibition.
# Dosing of all cohorts commenced on Day 0 when the mean tumor volume of all cohorts was between about 100 to 200 cubic millimeters. […] Formula A was tested at as a single agent at a single dose level of 75 mg/kg for which a similar TGI was obtained at day 23.
# [3] = test system: MM1.s multiple myeloma xenografts; assay: MM1.s multiple myeloma xenograft; format: in vivo, SCID mice; conditions: Compound 3 50 mg/kg po qd, day 18 vs vehicle
# Protocol: as §1
# Dosing of all cohorts commenced on Day 0 when the mean tumor volume of all cohorts was between about 200 to 300 cubic millimeters. […] Formula A was tested at as a single agent at a single dose level of 75 mg/kg for which a lesser TGI was obtained at day 18.
# MM1.S cells = assay: MM1.S cell proliferation, 72 hours (Cell Titer Glo); format: cell-based; conditions: Homo sapiens
# In short: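 BaF3 parental cells (2 k/well, with 2 ng/mL mIL-3) were treated overnight, and MM1.S cells (10 k/well) were treated for 72 h at 37 °C. Viability was read by CellTiter-Glo luminescence. IC50/EC50 values were calculated from the luminescence data.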
structure (smiles),measurement,setting,value
"Nc1sc(-c2c(F)cccc2F)nc1C(=O)Nc1cnccc1N1CCC[C@H](N)C1 [Example 3, (S)-5-amino-N-(4-(3-aminopiperidin-1-yl)pyridin-3-yl)-2-(2,6-difluorophenyl)thiazole-4-carboxamide]",IC50,BaF3 parental cells,8 µM
same,"effect on tumor growth, single agents",[1],no significant effect on tumor growth
same,tumor growth inhibition (TGI),[2],about 45%
same,tumor growth inhibition (TGI),[3],about 60%
same,EC50,"MM1.S cells; 72 hours, read-out: Prolif MM1S ATP (EC50)",0.0497 µM
same,EC50,"MM1.S cells; Table 3, read-out: MM1.s",0.2 µM
